Assay results from ChEMBL document CHEMBL4376834, “Discovery of 4H-Chromen-4-one Derivatives as a New Class of Selective Rho Kinase (ROCK) Inhibitors, which Showed Potent Activity in ex Vivo Diabetic Retinopathy Models” (J Med Chem, 2019).

What was measured:
[1] = target: Tyrosine-protein kinase ABL2 (Homo sapiens, UniProt P42684); assay: Inhibition of human recombinant ARG (48 to end residues) using EAIYAAPFAKKK as substrate incubated for 40 mins in presence of [gamma-33ATP] by radiometric scintillation counting analysis
[2] = target: 5'-AMP-activated protein kinase catalytic subunit alpha-1 (Homo sapiens, UniProt Q13131); assay: Inhibition of human full length AMPKalpha1 recombinant using AMARAASAAALAR as substrate incubated for 40 mins in presence of [gamma-33ATP] by radiometric scintillation counting analysis
[3] = target: 5'-AMP-activated protein kinase catalytic subunit alpha-2 (Homo sapiens, UniProt P54646); assay: Inhibition of human full length AMPKalpha2 recombinant using AMARAASAAALAR as substrate incubated for 40 mins in presence of [gamma-33ATP] by radiometric scintillation counting analysis
[4] = target: Calcium/calmodulin-dependent protein kinase type IV (Homo sapiens, UniProt Q16566); assay: Inhibition of recombinant full length human CaMK4 using calmodulin as substrate incubated for 40 mins in presence of [gamma-33ATP] by radiometric scintillation counting analysis
[5] = target: CDK7/Cyclin H/MNAT1 (Homo sapiens, UniProt P50613); assay: Inhibition of recombinant full length human CDK7/cyclinH/MAT1 using peptide substrate incubated for 40 mins in presence of [gamma-33ATP] by radiometric scintillation counting analysis; assay type: protein-complex assay
Chain of CDK7/Cyclin H/MNAT1 (P51946 whole entry, the tested form may be a part): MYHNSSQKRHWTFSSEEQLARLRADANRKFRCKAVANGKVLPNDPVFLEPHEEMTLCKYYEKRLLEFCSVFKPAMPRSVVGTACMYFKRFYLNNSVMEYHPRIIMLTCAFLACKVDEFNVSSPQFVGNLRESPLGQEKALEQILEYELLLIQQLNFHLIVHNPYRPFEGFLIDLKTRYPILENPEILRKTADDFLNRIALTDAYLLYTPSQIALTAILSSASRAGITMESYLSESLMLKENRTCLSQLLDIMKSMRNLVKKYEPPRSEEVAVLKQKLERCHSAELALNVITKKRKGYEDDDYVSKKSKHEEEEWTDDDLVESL
Chain of CDK7/Cyclin H/MNAT1 (P50613 whole entry, the tested form may be a part): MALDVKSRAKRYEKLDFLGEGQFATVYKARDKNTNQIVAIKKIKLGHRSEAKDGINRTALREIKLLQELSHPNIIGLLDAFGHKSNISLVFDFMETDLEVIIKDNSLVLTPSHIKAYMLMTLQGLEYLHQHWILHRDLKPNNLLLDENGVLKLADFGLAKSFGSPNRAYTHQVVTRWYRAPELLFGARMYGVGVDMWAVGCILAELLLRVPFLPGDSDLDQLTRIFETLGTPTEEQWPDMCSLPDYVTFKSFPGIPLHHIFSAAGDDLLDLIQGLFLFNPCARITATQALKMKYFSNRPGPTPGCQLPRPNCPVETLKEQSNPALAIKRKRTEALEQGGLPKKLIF
Chain of CDK7/Cyclin H/MNAT1 (P51948 whole entry, further chain, the tested form may be a part): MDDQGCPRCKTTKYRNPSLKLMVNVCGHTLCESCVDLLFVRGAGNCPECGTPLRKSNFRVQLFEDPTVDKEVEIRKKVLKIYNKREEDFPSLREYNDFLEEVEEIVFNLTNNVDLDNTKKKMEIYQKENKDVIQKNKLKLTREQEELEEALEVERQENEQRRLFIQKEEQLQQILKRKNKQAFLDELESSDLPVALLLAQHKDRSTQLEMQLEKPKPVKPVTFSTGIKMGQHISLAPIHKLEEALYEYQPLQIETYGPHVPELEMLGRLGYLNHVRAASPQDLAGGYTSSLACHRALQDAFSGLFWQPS

[6] = target: Serine/threonine-protein kinase Nek9 (Homo sapiens, UniProt Q8TD19); assay: Inhibition of recombinant human NEK9 (1 to 324 residues) using myelin basic protein as substrate measured after 40 mins in presence of [gamma33P]ATP by radiometric scintillation counting analysis
[7] = target: Hepatocyte growth factor receptor (Homo sapiens, UniProt P08581, M1250T); assay: Inhibition of recombinant human MET A1209G/V1290L/M1268T triple mutant (974 to end residues) using KKKGQEEEYVFIE as substrate incubated for 40 mins in presence of [gamma-33ATP by radiometric scintillation counting analysis
[8] = target: Phosphorylase b kinase gamma catalytic chain, skeletal muscle/heart isoform (Homo sapiens, UniProt Q16816); assay: Inhibition of recombinant full-length human PhKgamma1 using KKLNRTLSFAEPG as substrate incubated for 40 mins in presence of [gamma33P]ATP by radiometric scintillation counting analysis
Chain of Phosphorylase b kinase gamma catalytic chain, skeletal muscle/heart isoform (Q16816 whole entry, canonical isoform): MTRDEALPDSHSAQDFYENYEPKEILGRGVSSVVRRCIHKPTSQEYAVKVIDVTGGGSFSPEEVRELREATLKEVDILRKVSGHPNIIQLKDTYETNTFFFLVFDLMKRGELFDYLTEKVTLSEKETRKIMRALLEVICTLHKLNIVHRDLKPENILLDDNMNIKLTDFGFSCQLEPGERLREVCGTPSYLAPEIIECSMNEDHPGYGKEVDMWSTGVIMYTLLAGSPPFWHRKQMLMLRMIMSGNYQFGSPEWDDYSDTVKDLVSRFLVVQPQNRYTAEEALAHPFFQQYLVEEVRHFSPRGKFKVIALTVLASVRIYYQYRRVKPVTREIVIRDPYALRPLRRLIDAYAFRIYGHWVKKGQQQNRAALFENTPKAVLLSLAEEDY

[9] = target: Platelet-derived growth factor receptor beta (Homo sapiens, UniProt P09619); assay: Inhibition of human PDGFRbeta (557 to end residues) using poly(Glu, Tyr) 4:1 as substrate measured after 40 mins in presence of [gamma33P]ATP by radiometric scintillation counting analysis
[10] = target: Serine/threonine-protein kinase PAK 3 (Homo sapiens, UniProt O75914); assay: Inhibition of recombinant full-length human PAK3 using RRRLSFAEPG as substrate measured after 40 mins in presence of [gamma33P]ATP by radiometric scintillation counting analysis
[11] = target: Fibroblast growth factor receptor 3 (Homo sapiens, UniProt P22607); assay: Inhibition of recombinant human FGFR3 (447 to 761 residues) using poly(Glu, Tyr) 4:1 as substrate after 40 mins in presence of [gamma-33ATP] by radiometric scintillation counting analysis
[12] = target: Fibroblast growth factor receptor 4 (Homo sapiens, UniProt P22455); assay: Inhibition of recombinant human FGFR4 (442 to 755 residues) using poly(Glu, Tyr) 4:1 as substrate after 40 mins in presence of [gamma-33ATP] by radiometric scintillation counting analysis
[13] = target: G protein-coupled receptor kinase 3 (Homo sapiens, UniProt P35626); assay: Inhibition of recombinant full length human GRK3 using casein as substrate after 40 mins in presence of [gamma-33ATP] by radiometric scintillation counting analysis
[14] = target: Serine/threonine-protein kinase haspin (Homo sapiens, UniProt Q8TF76); assay: Inhibition of human recombinant Haspin (471 to end residues) using RARTLSFAEPG as substrate after 40 mins by [gamma-33ATP] radiometric assay
Chain of Serine/threonine-protein kinase haspin (Q8TF76 whole entry, the tested form may be a part): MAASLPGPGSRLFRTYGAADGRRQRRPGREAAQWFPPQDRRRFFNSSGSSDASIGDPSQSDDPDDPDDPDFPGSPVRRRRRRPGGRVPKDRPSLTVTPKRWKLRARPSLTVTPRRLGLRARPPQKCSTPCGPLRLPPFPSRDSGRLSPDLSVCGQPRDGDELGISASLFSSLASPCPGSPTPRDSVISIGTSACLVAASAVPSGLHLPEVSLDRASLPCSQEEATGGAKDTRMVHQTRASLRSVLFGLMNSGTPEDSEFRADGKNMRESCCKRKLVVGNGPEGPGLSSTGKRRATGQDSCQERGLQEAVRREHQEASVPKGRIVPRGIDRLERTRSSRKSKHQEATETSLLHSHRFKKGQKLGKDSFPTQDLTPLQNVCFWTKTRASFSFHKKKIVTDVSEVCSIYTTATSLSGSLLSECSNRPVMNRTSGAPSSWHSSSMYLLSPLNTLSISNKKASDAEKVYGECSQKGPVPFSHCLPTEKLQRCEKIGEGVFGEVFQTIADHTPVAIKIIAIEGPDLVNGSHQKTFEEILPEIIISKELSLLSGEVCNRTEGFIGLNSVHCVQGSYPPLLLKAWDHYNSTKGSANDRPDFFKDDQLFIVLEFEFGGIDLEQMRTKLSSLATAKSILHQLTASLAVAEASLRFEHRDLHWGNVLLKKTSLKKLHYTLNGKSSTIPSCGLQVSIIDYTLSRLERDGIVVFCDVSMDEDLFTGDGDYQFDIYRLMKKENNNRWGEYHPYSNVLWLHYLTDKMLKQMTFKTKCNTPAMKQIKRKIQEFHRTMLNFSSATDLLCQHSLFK

[15] = target: Tyrosine-protein kinase HCK (Homo sapiens, UniProt P08631); assay: Inhibition of human recombinant activated HCK (230 to 497 residues) using GGMEDIYFEFMGG as substrate after 40 mins by [gamma-33ATP] radiometric assay
[16] = target: Homeodomain-interacting protein kinase 4 (Homo sapiens, UniProt Q8NE63); assay: Inhibition of human recombinant full length HIPK4 using RRRFRPASPLRGP as substrate after 40 mins by [gamma-33ATP] radiometric assay
Chain of Homeodomain-interacting protein kinase 4 (Q8NE63 whole entry): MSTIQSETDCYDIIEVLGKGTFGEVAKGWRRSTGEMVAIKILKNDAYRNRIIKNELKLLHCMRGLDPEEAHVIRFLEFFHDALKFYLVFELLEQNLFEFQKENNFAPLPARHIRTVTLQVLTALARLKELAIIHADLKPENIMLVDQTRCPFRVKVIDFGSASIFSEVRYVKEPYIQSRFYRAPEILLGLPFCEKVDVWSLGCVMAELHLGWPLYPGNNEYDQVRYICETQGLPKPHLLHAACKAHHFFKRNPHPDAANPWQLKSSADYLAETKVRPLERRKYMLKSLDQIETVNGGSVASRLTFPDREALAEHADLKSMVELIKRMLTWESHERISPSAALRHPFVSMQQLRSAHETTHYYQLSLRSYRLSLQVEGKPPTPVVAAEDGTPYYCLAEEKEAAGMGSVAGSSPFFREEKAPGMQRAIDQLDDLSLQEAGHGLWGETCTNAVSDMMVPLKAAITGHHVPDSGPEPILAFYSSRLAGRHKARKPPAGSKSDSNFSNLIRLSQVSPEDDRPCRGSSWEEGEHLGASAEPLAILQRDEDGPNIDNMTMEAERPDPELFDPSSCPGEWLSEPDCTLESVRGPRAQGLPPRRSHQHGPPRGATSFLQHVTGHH

[17] = target: MAP kinase-activated protein kinase 3 (Homo sapiens, UniProt Q16644); assay: Inhibition of recombinant human MAPKAPK3 (2 to end residues) using KKLNRTLSVA as substrate incubated for 40 mins in presence of [gamma-33ATP by radiometric scintillation counting analysis
[18] = target: MAP/microtubule affinity-regulating kinase 4 (Homo sapiens, UniProt Q96L34); assay: Inhibition of recombinant full length human MARK4 using KKKVSRSGLYRSP as substrate incubated for 40 mins in presence of [gamma-33ATP by radiometric scintillation counting analysis
[19] = target: Tyrosine-protein kinase receptor TYRO3 (Homo sapiens, UniProt Q06418); assay: Inhibition of recombinant human RSE (451 to end residues) using KVEKIGEGTYGVV as substrate incubated for 40 mins in presence of [gamma33P]ATP by radiometric scintillation counting analysis
[20] = target: Mitogen-activated protein kinase 14 (Homo sapiens, UniProt Q16539); assay: Inhibition of recombinant human full length SAPK2a using myelin basic protein as substrate incubated for 40 mins in presence of [gamma33P]ATP by radiometric scintillation counting analysis
Chain of Mitogen-activated protein kinase 14 (Q16539 whole entry): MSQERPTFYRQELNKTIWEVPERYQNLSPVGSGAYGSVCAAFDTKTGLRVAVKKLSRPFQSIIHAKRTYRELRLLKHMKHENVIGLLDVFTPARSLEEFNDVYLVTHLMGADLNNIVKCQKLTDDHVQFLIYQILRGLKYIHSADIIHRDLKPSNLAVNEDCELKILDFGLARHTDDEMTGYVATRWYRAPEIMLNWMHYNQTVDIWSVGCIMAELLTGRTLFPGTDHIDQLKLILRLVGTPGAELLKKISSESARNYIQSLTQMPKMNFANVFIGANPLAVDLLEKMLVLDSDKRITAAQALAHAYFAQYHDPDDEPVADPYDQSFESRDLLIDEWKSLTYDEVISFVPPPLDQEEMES

[21] = target: Serine/threonine-protein kinase SBK1 (Homo sapiens, UniProt Q52WX2); assay: Inhibition of recombinant full-length human SBK1 using KKLRRTLSVA as substrate incubated for 120 mins in presence of [gamma33P]ATP by radiometric scintillation counting analysis
[22] = target: Transcription initiation factor TFIID subunit 1-like (Homo sapiens, UniProt Q8IZX4); assay: Inhibition of recombinant human TAF1L (1428 to end residues) using RRRFRPASPLRGP as substrate incubated for 120 mins in presence of [gamma33P]ATP by radiometric scintillation counting analysis
[23] = target: Tau-tubulin kinase 1 (Homo sapiens, UniProt Q5TCY1); assay: Inhibition of recombinant human TTBK1 (1 to 479 residues) using casein as substrate incubated for 40 mins in presence of [gamma33P]ATP by radiometric scintillation counting analysis
Chain of Tau-tubulin kinase 1 (Q5TCY1 whole entry, the tested form may be a part): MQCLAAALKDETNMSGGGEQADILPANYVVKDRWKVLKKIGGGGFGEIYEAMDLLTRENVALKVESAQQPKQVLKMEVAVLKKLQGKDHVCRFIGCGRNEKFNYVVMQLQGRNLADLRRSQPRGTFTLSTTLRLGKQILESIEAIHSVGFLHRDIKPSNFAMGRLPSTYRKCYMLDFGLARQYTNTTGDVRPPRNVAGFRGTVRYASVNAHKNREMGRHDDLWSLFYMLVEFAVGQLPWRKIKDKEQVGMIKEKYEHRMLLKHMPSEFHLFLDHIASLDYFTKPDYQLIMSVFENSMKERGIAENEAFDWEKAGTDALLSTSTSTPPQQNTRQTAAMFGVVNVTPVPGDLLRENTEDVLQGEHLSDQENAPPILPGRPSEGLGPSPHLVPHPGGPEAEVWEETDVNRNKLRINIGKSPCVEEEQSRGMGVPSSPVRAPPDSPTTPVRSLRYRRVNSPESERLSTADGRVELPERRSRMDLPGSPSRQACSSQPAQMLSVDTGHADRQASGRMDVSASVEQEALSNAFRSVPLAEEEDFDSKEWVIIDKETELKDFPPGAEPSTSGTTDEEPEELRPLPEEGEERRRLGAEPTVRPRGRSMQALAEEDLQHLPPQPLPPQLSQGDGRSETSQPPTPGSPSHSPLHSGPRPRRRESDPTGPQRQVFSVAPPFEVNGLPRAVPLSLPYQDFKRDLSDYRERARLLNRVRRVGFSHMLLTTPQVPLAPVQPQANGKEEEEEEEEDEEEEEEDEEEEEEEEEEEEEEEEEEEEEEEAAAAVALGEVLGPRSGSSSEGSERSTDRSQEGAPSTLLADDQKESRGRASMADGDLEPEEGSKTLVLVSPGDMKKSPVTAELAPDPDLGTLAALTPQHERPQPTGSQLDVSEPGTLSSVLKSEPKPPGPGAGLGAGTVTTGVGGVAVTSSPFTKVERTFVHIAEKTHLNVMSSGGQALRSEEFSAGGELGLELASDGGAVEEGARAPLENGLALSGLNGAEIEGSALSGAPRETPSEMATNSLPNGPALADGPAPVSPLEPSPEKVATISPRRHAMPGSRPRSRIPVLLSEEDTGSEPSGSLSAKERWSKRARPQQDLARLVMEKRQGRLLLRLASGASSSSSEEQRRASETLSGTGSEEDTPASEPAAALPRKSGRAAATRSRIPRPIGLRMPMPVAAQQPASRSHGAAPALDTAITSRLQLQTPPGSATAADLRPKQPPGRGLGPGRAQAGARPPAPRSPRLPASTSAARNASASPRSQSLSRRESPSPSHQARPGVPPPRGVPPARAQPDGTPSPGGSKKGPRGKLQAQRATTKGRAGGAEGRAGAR

[24] = target: Serine/threonine-protein kinase VRK1 (Homo sapiens, UniProt Q99986); assay: Inhibition of human VRK1 in presence of 10 uM ATP by radiometric analysis
[25] = target: Tyrosine-protein kinase Yes (Homo sapiens, UniProt P07947); assay: Inhibition of recombinant full-length human Yes using poly(Glu, Tyr) 4:1 as substrate incubated for 40 mins in presence of [gamma33P]ATP by radiometric scintillation counting analysis
Chain of Tyrosine-protein kinase Yes (P07947 whole entry): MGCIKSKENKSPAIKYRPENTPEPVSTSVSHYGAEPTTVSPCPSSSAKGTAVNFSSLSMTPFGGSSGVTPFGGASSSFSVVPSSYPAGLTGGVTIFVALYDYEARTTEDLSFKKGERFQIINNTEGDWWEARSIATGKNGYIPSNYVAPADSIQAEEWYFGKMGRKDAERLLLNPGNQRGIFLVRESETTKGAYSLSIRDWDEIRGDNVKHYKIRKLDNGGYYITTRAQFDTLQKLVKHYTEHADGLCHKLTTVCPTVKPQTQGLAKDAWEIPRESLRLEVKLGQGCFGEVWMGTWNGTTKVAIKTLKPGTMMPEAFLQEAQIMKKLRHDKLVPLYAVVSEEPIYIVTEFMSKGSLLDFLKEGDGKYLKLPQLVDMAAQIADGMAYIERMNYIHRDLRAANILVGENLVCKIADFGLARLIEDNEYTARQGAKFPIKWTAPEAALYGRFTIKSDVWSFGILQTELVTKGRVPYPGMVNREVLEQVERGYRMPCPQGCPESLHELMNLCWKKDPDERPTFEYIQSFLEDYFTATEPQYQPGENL

[26] = Inhibition of human PIP4K2

Measured: IC50

CN(C)c1ccc(C(=O)Nc2cccc(NC(=O)COc3ccc4c(=O)ccoc4c3)c2)cc1
> 10 µM: all assays above
